What was measured:
Format in all cases: cell-based
[1] = test system: RAR gamma; experiment: RAR gamma agonist reporter cell assay (Gal4 DBD receptor hybrid, luciferase); settings: for Fold Activation: 23 hours, vs DMSO; for agonist activity towards RAR gamma (in words): summary of Table 1
Method: Reporter Cells (Indigo Biosciences, catalog #IB02201, IB02101, IB00821) were used in the assays. The reporter cells expressed a receptor hybrid in which the native N-terminal DNA binding domain (DBD) had been replaced with that of the yeast Gal4 DBD. The reporter gene, firefly luciferase, is functionally linked to the Gal4 upstream activation sequence (UAS). Receptor assays were performed as follows, Steps 1 to 3. Step 1: A suspension of Reporter Cells was prepared in Cell Recovery Medium (CRM: containing charcoal-stripped FBS) and 100 μL of the Reporter Cell suspension was dispensed into each of the wells of a white 96-well assay plate. Step 2: Test and reference compound master stocks were prepared as solutions at 1,000× concentration in DMSO relative to the final treatment concentration. […] The concentration of residual DMSO in all assay wells was 0.1% for the test and reference compounds. Assay plates were incubated at 37° C., 5% CO2 and ˜70% humidity for 23 hours. DMSO control was used to determine background activity. […] Retinol served as positive control. Step 3: Following the incubation period, treatment media were discarded and 100 μL/well of Luciferase Detection Reagent was added per well to determine receptor activity in terms of relative luminescence units (RLUs). Data processing: Fold activation: [Ave RLU Test Cmpd/Ave RLU DMSO].

[2] = target: T1, RAR alpha (Homo sapiens, UniProt P10276); experiment: RAR alpha agonist reporter cell assay (Gal4 DBD receptor hybrid, luciferase); settings: for Fold Activation: 23 hours, vs DMSO; for agonist activity towards RAR alpha (in words): summary of Table 1
T1 sequence (P10276 183-417 limits assumed): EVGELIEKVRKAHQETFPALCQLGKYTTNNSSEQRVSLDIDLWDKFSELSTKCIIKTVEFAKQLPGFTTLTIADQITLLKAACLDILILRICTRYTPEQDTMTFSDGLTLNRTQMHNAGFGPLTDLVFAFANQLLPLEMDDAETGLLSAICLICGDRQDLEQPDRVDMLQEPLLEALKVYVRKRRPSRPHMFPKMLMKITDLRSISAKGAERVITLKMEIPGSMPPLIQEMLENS
Method: (§1) Reporter Cells (Indigo Biosciences, catalog #IB02201, IB02101, IB00821) were used in the assays. The reporter cells expressed a receptor hybrid in which the native N-terminal DNA binding domain (DBD) had been replaced with that of the yeast Gal4 DBD. The reporter gene, firefly luciferase, is functionally linked to the Gal4 upstream activation sequence (UAS). Receptor assays were performed as follows, Steps 1 to 3.
(§2) Step 1: A suspension of Reporter Cells was prepared in Cell Recovery Medium (CRM: containing charcoal-stripped FBS) and 100 μL of the Reporter Cell suspension was dispensed into each of the wells of a white 96-well assay plate. Step 2: Test and reference compound master stocks were prepared as solutions at 1,000× concentration in DMSO relative to the final treatment concentration. This intermediate stock was subsequently diluted directly into INDIGO Biosciences's Compound Screening Medium (CSM; containing charcoal-stripped FBS) to generate ‘2×-concentration’ treatment media. 100 μL of each prepared treatment medium was dispensed into duplicate assay wells pre-dispensed with a 100 μL suspension of Reporter Cells, thereby achieving the desired final treatment concentrations. The concentration of residual DMSO in all assay wells was 0.1% for the test and reference compounds. Assay plates were incubated at 37° C., 5% CO2 and ˜70% humidity for 23 hours. DMSO control was used to determine background activity. Retinoic acid was used with its EC100 concentration to show 100% activity of each receptor. Retinol served as positive control.
(§3) Step 3: Following the incubation period, treatment media were discarded and 100 μL/well of Luciferase Detection Reagent was added per well to determine receptor activity in terms of relative luminescence units (RLUs). Data processing: Fold activation: [Ave RLU Test Cmpd/Ave RLU DMSO].

[3] = target: T2, RAR beta (Homo sapiens, UniProt P10826); experiment: RAR beta agonist reporter cell assay (Gal4 DBD receptor hybrid, luciferase); settings: for Fold Activation: 23 hours, vs DMSO; for agonist activity towards RAR beta (in words): summary of Table 1
T2 sequence (P10826 183-417 limits assumed): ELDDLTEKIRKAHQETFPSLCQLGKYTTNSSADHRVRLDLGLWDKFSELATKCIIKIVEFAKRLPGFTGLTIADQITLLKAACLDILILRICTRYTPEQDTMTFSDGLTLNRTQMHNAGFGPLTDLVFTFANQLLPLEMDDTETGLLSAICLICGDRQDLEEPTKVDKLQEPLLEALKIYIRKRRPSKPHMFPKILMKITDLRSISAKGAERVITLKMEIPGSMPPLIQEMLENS
Method: as §1, §2, §3

Question: For `CC1=C(/C=C/C(C)=C/C=C/C(C)=C/C(=O)Oc2c(C)c(C)c3c(c2C)CCC(C)(CCCC(C)CCCC(C)CCCC(C)C)O3)C(C)(C)CCC1` (racemic) [(±)α-tocopheryl retinoate], which “Fold Activation” value ([1]; RAR gamma, 0.01 μM) is on record?
Answer: 1.79 fold

Question: What about the “Fold Activation” value ([1]; RAR gamma, 0.1 μM) of the same compound?
Answer: 23.8 fold

Question: And the “Fold Activation” value ([1]; RAR gamma, 1 μM)?
Answer: 365 fold

Question: What about the “agonist activity towards RAR gamma (in words)” value [1] of the same compound?
Answer: exhibited agonist activity

Question: And the “Fold Activation” value ([2]; RAR alpha, 0.01 μM)?
Answer: 1.27 fold

Question: What about the “Fold Activation” value ([2]; RAR alpha, 0.1 μM) of the same compound?
Answer: 9.14 fold

Question: And the “Fold Activation” value ([2]; RAR alpha, 1 μM)?
Answer: 552 fold

Question: And the “agonist activity towards RAR alpha (in words)” value [2]?
Answer: exhibited agonist activity

Question: What about the “Fold Activation” value ([3]; RAR beta, 0.01 μM) of the same compound?
Answer: 0.882 fold

Question: And the “Fold Activation” value ([3]; RAR beta, 0.1 μM)?
Answer: 6.33 fold

Question: And the “Fold Activation” value ([3]; RAR beta, 1 μM)?
Answer: 149 fold

Question: And the “agonist activity towards RAR beta (in words)” value [3]?
Answer: exhibited agonist activity

Question: What does the source list for `CC1=C(/C=C/C(C)=C/C=C/C(C)=C/C(=O)Oc2ccc(O)c(C(C)(C)C)c2)C(C)(C)CCC1` [3-tert-Butyl-4-hydroxyphenyl retinoate, 3-tert-butyl-4-hydroxyphenyl retinoate]?
Answer: activity compared with retinoic acid ([1]; RAR gamma): comparable activity to retinoic acid; Fold Activation ([1]; RAR gamma, 0.01 μM): 541 fold; Fold Activation ([1]; RAR gamma, 0.1 μM): 1,010 fold; Fold Activation ([1]; RAR gamma, 1 μM): 701 fold; activity compared with retinol ([1]; RAR gamma, all tested concentrations): higher activity than retinol at all tested concentrations; agonist activity towards RAR gamma (in words) [1]: exhibited agonist activity; activity compared with retinoic acid ([2]; RAR alpha): comparable activity to retinoic acid; Fold Activation ([2]; RAR alpha, 0.01 μM): 1,573 fold; Fold Activation ([2]; RAR alpha, 0.1 μM): 2,768 fold; Fold Activation ([2]; RAR alpha, 1 μM): 3,414 fold; activity compared with retinol ([2]; RAR alpha, all tested concentrations): higher activity than retinol at all tested concentrations; agonist activity towards RAR alpha (in words) [2]: exhibited agonist activity; activity compared with retinoic acid ([3]; RAR beta): comparable activity to retinoic acid; Fold Activation ([3]; RAR beta, 0.01 μM): 232 fold; Fold Activation ([3]; RAR beta, 0.1 μM): 287 fold; Fold Activation ([3]; RAR beta, 1 μM): 331 fold; activity compared with retinol ([3]; RAR beta, all tested concentrations): higher activity than retinol at all tested concentrations; agonist activity towards RAR beta (in words) [3]: exhibited agonist activity

Question: `CC1=C(/C=C/C(C)=C/C=C/C(C)=C/C(=O)Oc2cc(C)c3c(c2)CC[C@@](C)(CCC[C@H](C)CCC[C@H](C)CCCC(C)C)O3)C(C)(C)CCC1` [(+)δ-Tocopheroyl retinoate, (+)δ-tocopheroyl retinoate] was tested. Which “Fold Activation” value ([1]; RAR gamma, 0.01 μM) did it give?
Answer: 1.10 fold

Question: And the “Fold Activation” value ([1]; RAR gamma, 0.1 μM)?
Answer: 8.45 fold

Question: What about the “Fold Activation” value ([1]; RAR gamma, 1 μM) of the same compound?
Answer: 315 fold

Question: What about the “agonist activity towards RAR gamma (in words)” value [1] of the same compound?
Answer: exhibited agonist activity

Question: What about the “Fold Activation” value ([2]; RAR alpha, 0.01 μM) of the same compound?
Answer: 0.620 fold

Question: And the “Fold Activation” value ([2]; RAR alpha, 0.1 μM)?
Answer: 5.25 fold

Question: What about the “Fold Activation” value ([2]; RAR alpha, 1 μM) of the same compound?
Answer: 251 fold

Question: And the “agonist activity towards RAR alpha (in words)” value [2]?
Answer: exhibited agonist activity

Question: And the “Fold Activation” value ([3]; RAR beta, 0.01 μM)?
Answer: 1.57 fold

Question: What about the “Fold Activation” value ([3]; RAR beta, 0.1 μM) of the same compound?
Answer: 3.96 fold

Question: What about the “Fold Activation” value ([3]; RAR beta, 1 μM) of the same compound?
Answer: 53.4 fold

Question: What about the “agonist activity towards RAR beta (in words)” value [3] of the same compound?
Answer: exhibited agonist activity

Question: With `CC1=C(/C=C/C(C)=C/C=C/C(C)=C/C(=O)O)C(C)(C)CCC1` [Retinoic acid, reference compound] as the compound, how does the “Fold Activation” value ([1]; RAR gamma, 0.1 μM) read?
Answer: 706 fold

Question: `CC1=C(/C=C/C(C)=C/C=C/C(C)=C/CO)C(C)(C)CCC1` [Retinol, reference compound] was tested. Which “Fold Activation” value ([1]; RAR gamma, 0.01 μM) did it give?
Answer: 2.28 fold

Question: What about the “Fold Activation” value ([1]; RAR gamma, 0.1 μM) of the same compound?
Answer: 18.5 fold

Question: What about the “Fold Activation” value ([1]; RAR gamma, 1 μM) of the same compound?
Answer: 368 fold

Question: And the “Fold Activation” value ([2]; RAR alpha, 0.01 μM)?
Answer: 1.77 fold

Question: What about the “Fold Activation” value ([2]; RAR alpha, 0.1 μM) of the same compound?
Answer: 6.35 fold

Question: What about the “Fold Activation” value ([2]; RAR alpha, 1 μM) of the same compound?
Answer: 518 fold

Question: And the “Fold Activation” value ([3]; RAR beta, 0.01 μM)?
Answer: 1.63 fold

Question: What about the “Fold Activation” value ([3]; RAR beta, 0.1 μM) of the same compound?
Answer: 4.91 fold

Question: And the “Fold Activation” value ([3]; RAR beta, 1 μM)?
Answer: 127 fold
